Read-outs that look alike come from different tables or passages of the source.
Assays:
[1] = test system: cisplatin-sensitive SGC-7901 gastric cancer cells; test: MTT cytotoxicity, cisplatin-sensitive SGC-7901; type: cell-based; details: SGC-7901, MTT, 72 h
Protocol: (§1) All prepared cobalt-polypyridyl complexes were dissolved in DMSO at a final concentration of 50 mmol/L and stored at −20° C. before use. Cytotoxicity was assessed by using the 3-(4,5-dimethylthiazol-2-yl)-2,5-diphenyltetrazolium bromide (MTT) (5.0 mg/ml) assay as previously described (Wong, V. K. et al., Cell Death Dis, 2013, 4, e720). Briefly, 4×10^3 cells per well were seeded in 96-well plates before drug treatments. After overnight culture, the cells were then exposed to different concentrations of selected compounds (0.039-100 μmol/L) for 72 h. Cells without drug treatment were used as control. Subsequently, MTT (10 μL) solution was added to each well and incubated at 37° C. for 4 h followed by the addition of 100 μL solubilization buffer (10% SDS in 0.01 mol/L HCl) and overnight incubation. A570 nm was then determined in each well on the next day. The percentage of cell viability was calculated using the following formula: Cell viability (%)=Atreated/Acontrol×100. Data were obtained from three independent experiments.

MCF-7 (breast cancer) = test: MTT cytotoxicity assay, MCF-7; type: cell-based; details: MCF-7, MTT, 72 h
Protocol: as §1, with “experiments. Cells include HeLa cells (cervical cancer), MCF-7 (breast cancer), H1299, H1975, A549 and LLC-1 (lung cancer), HepG2 and Hep3B (liver cancer) and LO2 (normal human hepatocytes).” for “experiments.”

[2] = test system: HeLa cells (cervical cancer); test: MTT cytotoxicity assay, HeLa; type: cell-based; details: 72 h
Protocol: as §1, with “experiments. Cells include HeLa cells (cervical cancer), MCF-7 (breast cancer), H1299, H1975, A549 and LLC-1 (lung cancer), HepG2 and Hep3B (liver cancer) and LO2 (normal human hepatocytes).” for “experiments.”

HeLa cancer cells = test system: HeLa cancer cells
Protocol: For cell cycle analysis, the cells were harvested and washed with ice-cold phosphate-buffered saline (PBS), and then suspended and permeabilized with 70% ethanol for overnight at 4° C. For detecting DNA content and cell cycle, cells were incubated with the freshly prepared propidium iodide (PI) staining buffer for 30 min at room temperature in dark. Fractions of the cells in G1, S, and G2/M phase were analyzed using Modfit software 3.1.
To investigate whether the cobalt-polypyridyl complexes could suppress cancer cell growth by arresting cell cycle progression, HeLa cancer cells were treated with different concentrations of the cobalt-polypyridyl complex of Formula (IV) (with PF6^− as counterion).

[3] = test system: LC3-II protein conversion; test: Western blotting of LC3-I to LC3-II conversion; type: cell-based; details: Western blot; complex at 10 μM and 20 μM
Protocol: After drug treatment, adherent and floating cells were lysed with RIPA lysis buffer. Protein concentrations were determined using the Bio-Rad protein assay (Bio-Rad Laboratories, Inc., Hercules, Calif., USA). The cell lysates of samples were subjected to electrophoresis on SDS polyacrylamide gels and transferred to Hybond enhanced chemiluminescence nitrocellulose membranes (Amersham Biosciences, Piscataway, N.J.), which were then blocked with 5% non-fat dry milk protein for 1 h. Membranes were then incubated with the indicated primary antibodies overnight at 4° C. The binding of the antibody was visualized by peroxidase-coupled secondary antibody using the ECL Western Blotting Detection Reagents (Invitrogen, Paisley, Scotland, UK). Band intensities were quantified by using the software ImageJ (NIH, Bethesda, Md., USA).

H1975 (lung cancer) = test: MTT cytotoxicity assay, H1975; type: cell-based; details: 72 h
Protocol: as §1, with “experiments. Cells include HeLa cells (cervical cancer), MCF-7 (breast cancer), H1299, H1975, A549 and LLC-1 (lung cancer), HepG2 and Hep3B (liver cancer) and LO2 (normal human hepatocytes).” for “experiments.”

HepG2 (liver cancer) = test: MTT cytotoxicity assay, HepG2; type: cell-based; details: 72 h
Protocol: as §1, with “experiments. Cells include HeLa cells (cervical cancer), MCF-7 (breast cancer), H1299, H1975, A549 and LLC-1 (lung cancer), HepG2 and Hep3B (liver cancer) and LO2 (normal human hepatocytes).” for “experiments.”

[4] = test system: Taxol-sensitive A549 cancer cells; test: MTT cytotoxicity, taxol-sensitive A549; type: cell-based; details: 72 h
Protocol: as §1

[5] = test system: human H1299 lung cancer cells; details: H1299, sub-lethal doses 0.2, 0.5, 1.0 μM
Protocol: The cancer cell invasion assay was performed in a Cell Invasion Chamber, a 24-well tissue culture plate with cell culture inserts that contain an […] pore size polycarbonate membrane over a thin layer of dried ECMatrix™ (CHEMICON).
To determine the inhibitory effect of cobalt-polypyridyl complexes of the present invention in cancer cell invasion, human H1299 lung cancer cells with well-known cell invasion ability were treated with the cobalt-polypyridyl complex of Formula (IV) in its sub-lethal (non-toxic) doses.

[6] = test system: cisplatin-resistant SGC-7901 gastric cancer cells; test: MTT cytotoxicity, cisplatin-resistant SGC-7901; type: cell-based
Protocol: as §1
(§2) All cells were obtained from the American Type Culture Collection (Rockville, Md., USA) unless otherwise specified. Immortalized wild-type and Atg7-deficient mouse embryonic fibroblasts (MEFs) were provided by Professor Masaaki Komatsu (Juntendo University, School of Medicine, Japan). Taxol-resistant types of A549, MCF-7, HCT-8 cancer cells, cisplatin-resistant SGC7901 cancer cells were purchased from KeyGEN BioTECH, China.

Hep 3B (liver cancer) = test: MTT cytotoxicity assay, Hep3B; type: cell-based; details: 72 h
Protocol: as §1, with “experiments. Cells include HeLa cells (cervical cancer), MCF-7 (breast cancer), H1299, H1975, A549 and LLC-1 (lung cancer), HepG2 and Hep3B (liver cancer) and LO2 (normal human hepatocytes).” for “experiments.”

[7] = test system: LO2 (normal human hepatocytes); test: MTT cytotoxicity assay, LO2; type: cell-based; details: 72 h
Protocol: as §1, with “experiments. Cells include HeLa cells (cervical cancer), MCF-7 (breast cancer), H1299, H1975, A549 and LLC-1 (lung cancer), HepG2 and Hep3B (liver cancer) and LO2 (normal human hepatocytes).” for “experiments.”

[8] = test system: Taxol-sensitive MCF-7 cancer cells; test: MTT cytotoxicity, taxol-sensitive MCF-7; type: cell-based; details: MCF-7, MTT, 72 h
Protocol: as §1

[9] = test system: Taxol-resistant HCT8 cancer cells; test: MTT cytotoxicity, taxol-resistant HCT8; type: cell-based
Protocol: as §1, §2

**Q.** Which results are given for Cc1ccnc(-c2cc(C)ccn2)c1.Cc1ccnc(-c2cc(C)ccn2)c1.Cc1ccnc(-c2cc(C)ccn2)c1.F[P-](F)(F)(F)(F)F.F[P-](F)(F)(F)(F)F.F[P-](F)(F)(F)(F)F.[Co+3] [complex (IV), [Co^III(4,4′-Me2-Bpy)3.](PF6)3]?
**A.** IC50 [1]: 11.1 µM; IC50 (MCF-7 (breast cancer)): 6.03 µM; IC50 [2]: 11.9 µM; effect on cell cycle progression (HeLa cancer cells; high concentration): arrest HeLa cancer cell in S-phase; effect on cell cycle progression (HeLa cancer cells; low concentration): negligible effect on cell cycle progression; LC3-I to LC3-II protein conversion [3]: dose-dependently increased the LC3-II protein conversion; IC50 (H1975 (lung cancer)): 8.84 µM; IC50 (HepG2 (liver cancer)): 5.44 µM; IC50 [4]: 11.5 µM; cell invasion (fluorescence signal of invaded cells) [5]: dose-dependently decrease the cell fluorescence signal; IC50 ([6]; SGC-7901, MTT, 72 h): 12.6 µM; Resistant Factor ([6]; SGC-7901, cisplatin-resistant over cisplatin-sensitive): 1.14; IC50 (Hep 3B (liver cancer)): 3.7 µM; IC50 [7]: 13.2 µM; IC50 [8]: 4 µM; IC50 ([9]; HCT8, MTT, 72 h): 1.22 µM; Resistant Factor ([9]; HCT8, IC50 taxol-resistant over IC50 taxol-sensitive): 0.36

Source: US9895338B1, “Cobalt-polypyridyl complex for treatment of cancer, a pharmaceutical composition and a kit comprising it” (Macau University of Science and Technology, priority 2016, dated 2018)
